This is an account of results in patent EP0091090A2, “Bipyridine substituted imidazolidene copper complex and its use in food-producing animals, and bipyridine, 2,2'-(2-imidazolidinylidene) di-copper complex and use in animals” (INTERNATIONAL MINERALS & CHEMICAL CORPORATION, priority 1982, dated 1983).

Several values for one entry are separate records, joined by “and”; a condition that tells them apart may be missing. Equal entries are not always repeated. Where two headings read alike, the source gives them in different places.

Test [1] deals with rumen fluid batch culture. Briefly: Rumen fluid batch culture test: volatile fatty acid, gas (CH4 + H2), protein and amino acid accumulation (Example 2). In kind it is cell-based, steers. How it is done: The above Formula IV composition was tested to determine its effectiveness as a feed additive for ruminants. The initial tests were in rumen fluid batch culture systems to determine the effect of the compound on volatile fatty acid/methane ratios (VFA/CH4). […] Test Procedure: A 50/50 mixture of ground corn and ground alfalfa was used as the substrate for the subject rumen fluid batch culture test. The compound (Formula IV ) was present in the rumen fluid in three separate test samples at 8.33, 25 and 75 ppm, respectively. On day 1, rumen fluid was obtained from mature fistulated steers on 50/50 concentrate/roughage diets. The rumen fluid (RF) was strained through three layers of gauze cloth and equilibrated with C02 gas. Wheaton serum vials (125 ml) were prepared ahead with 20 ml continuous batch buffer and 100 mg 50/50 ground corn/ground alfalfa. Controls and compounds (dissolved in acetone) were set up according to desired levels. The vials were kept under C02 gas until 20 ml of the strained RF was added. The vials were sealed and incubated at 39°C for 24 hours in a hot water bath. On successive days, gas samples (0.1 ml) were drawn for gas chromatography analysis before transferring 20 ml of the batch culture to another vial containing 20 ml of buffer, 100 mg substrate, and the corresponding compound. The remaining 20 ml was inoculated with 2 ml 6N HC1 and centrifuged at 15,000 rpm for 15 minutes. Ether extracts were prepared for volatile fatty acid (VFA) analysis. Some minor adjustments were made in the termperatures on the Hewlett-Packard 5750 Gas-Liquid Chromatograph used for VFA analysis when the glass column used was changed from 1/4 inch diameter to 1/8 inch diameter. Injection Port = 220°C Column Oven = 170°C Flame Detector = 250°C Only 4 minutes was needed to record the sample instead of the previous 7 minutes.

The next test deals with rumen microflora. Briefly: Batch culture assay for the degradation of starch (Example 3). Format: cell-based, steers. The source says:
The subject Formula ^IV compound was also compared to monensin in another rumen fluid batch culture test as set forth below. The test was designed to screen compounds for inhibition of starch breakdown by the rumen microflora. […] It is considered more desirable to avoid degradation of starch in the rumen so that it is passed on into the abomasum where it can be digested more efficiently. […] Test Procedure: Animals - Mature fistulated steers were maintained on concentrate, roughage, or concentrate/ roughage (50/50) rations. Animals were fed twice daily at 8:00 A.M. and 4:00 P.M.
Culture Assays - Approximately two liters of rumen fluid were collected from fistulated animals with the use of a hand pump. The rumen fluid, collected in a stoppered flask, was then immediately taken to the laboratory for processing. Samples were taken at 8:00 A.M. just prior to the first feeding or at 1:00 P.M. (ca. 4-5 hours after the first feeding). Rumen fluid was strained through six layers of cotton gauze cloth into a flask that was flushed with C02 gas. The filtrate was centrifuged for 5 minutes at 100 rpm in a Sorvall centrifuge to remove large particulate material. The supernatant was again passed through six layers of gauze into a flask under C02 gas and stoppered.
Batch Culture Assay for the Degradation of Starch - Twenty-five ml of rumen fluid prepared as above was added to serum vials (Wheaton Glass, 100 ml capacity) containing 0.25-1.00% final concentration starch as an energy substrate in 25 ml batch culture assay buffer. The serum vials were sealed under C02 gas phase, and incubations were carried out for 20-24 hours at 39°C on a New Brunswick rotary shaker (250 rpm). Each experimental vial was done in triplicate. The corn starch used in degradation experiments was previously washed with distilled water several times, filtered through an 8 micron (47 mm) Millipore filter, and dried at 90°C for 24 hours.
At intervals of 0 and 24 hours, the entire contents in vials were centrifuged at 250 rpm for 5 minutes. The supernatants were carefully removed with a pipet and the remaining "starch pellets" resuspended in water and passed through borosilicate glass microfiber prefilters (Millipore AP 20-047-00). Filters were dried in an oven for 24 hours at 90°C, cooled and then weighed. The amount of starch remaining after 24 hours' incubation was compared with the amount present at 0 hours and the per cent of substrate degraded calculated.

Test [2] deals with rumen fluid batch culture. The test is described as follows: Batch rumen VFA and gas production screen (Example 8). Format: cell-based, steers. How it is done:
The above Formula II composition was tested to determine its effectiveness as a feed additive for ruminants. The initial tests were in rumen fluid batch culture systems to determine the effect of the compound on volatile fatty acid/methane ratios (VFA/CH4).
A 50/50.mixture of ground corn and ground alfalfa was used as the substrate for the subject rumen fluid batch culture test. The compound (Formula II) was present in the rumen fluid at 75 ppm.
On day 1, rumen fluid was obtained from mature fistulated steers on 50/50 concentrate/roughage diets. The rumen fluid (RF) was strained through three layers of gauze cloth and equilibrated with C02 gas. Wheaton serum vials (125 ml) were prepared ahead with 20 ml continuous batch buffer and 100 mg 50/50 ground corn/ground alfalfa. Controls and compounds (dissolved in acetone) were set up according to indicated levels. The vials were kept under C02 gas until 20 ml of the strained RF was added. The vials were sealed and incubated at 39°C for 24 hours in a hot water bath. On successive days, gas samples (0.1 ml) were drawn for gas chromatography analysis before transferring 20 ml of the batch culture to another vial containing 20 ml of buffer, 100 mg substrate, and the corresponding compound. The remaining 20 ml was inoculated with 2 ml 6N HCl and centrifuged at 15,000 rpm for 15 minutes. Ether extracts were prepared for volatile fatty acid (VFA) analysis. Some minor adjustments were made in the temperatures on the Hewlett-Packard 5750 Gas-Liquid Chromatograph used for VFA analysis when the glass column used was changed from 1/2 inch diameter to 1J8 inch diameter.
About 4 minutes was needed to record the sample.
In the above tests, four control groups were run and the mean established.

A short description of test [3]: Chick rye diet test system (Example 6). Format: in vivo. Particulars: compared to positive control (penicillin or bacitracin). The source says: The Formula III compound can be tested in a chick rye diet test system. […] Useful antibiotics for the positive control comparison are penicillin or bacitracin.
Where [4] appears, read: 75 ppm, single runs of duplicate.

Take `CC[C@@]1([C@@H]2O[C@@H]([C@H]3O[C@@](O)(CO)[C@H](C)C[C@@H]3C)C[C@@H]2C)CC[C@H]([C@]2(C)CC[C@]3(C[C@H](O)[C@@H](C)[C@@H]([C@@H](C)[C@@H](OC)[C@H](C)C(=O)O)O3)O2)O1` [Monensin, reference compound]: in test [1], the AA is 0.51 µmol/mL and 0.28 µmol/mL and 0.29 µmol/mL and 0.34 µmol/mL and 0.30 µmol/mL and 0.44 µmol/mL; the “CH4 produced on Day 10” value is on record as 49; the “Caloric Value of CH4” value was 10.33; the “Caloric Value of H2” value is listed as 0. Further, in test [1], the “Caloric Value of HAc” value was 105.04, the “Caloric Value of HBu” value amounted to 50.34, the “Caloric Value of HFo” value was determined as 0.98 and the “Caloric Value of HPr” value is 180.46. Besides, in test [1], the “Caloric Value of HiBu” value stood at 5.11; the “Caloric Value of HiVal” value came to 2.17; the “Caloric Value, Total (VFA's)” value stood at 344.10; the “Gross Cal Remaining in Feed” value amounted to 364.76 cal. In test [1], the H2 came out at 0 µ Moles, the “H2 produced on Day 10” value was 0, the “HAc (acetate) produced on Day 10” value is on record as 501.6 and the “HBu (butyrate) produced on Day 10” value is given as 96.8. For the same compound, in test [1], the “HFo (formate) produced on Day 10” value was 15.60, the “HPr (propionate) produced on Day 10” value was found to be 494.4, the “HiBu (isobutyrate) produced on Day 10” value amounted to 14.0 and the “HiVal (isovalerate) produced on Day 10” value was found to be 3.2. Further, the “Total VFA's produced on Day 10” value in test [1] was 1,125.6. Further, the “effect on starch fermentation” value with rumen microflora is recorded as “neither monensin or lasalocid had any effect”. Also, in test [2], the Acetate was 7.2 Mu Moles/ml and 5.6 Mu Moles/ml; the “Acetate, Mean” value is recorded as 6.4 Mu Moles/ml; the Butyrate was 7.8 Mu Moles/ml and 7.9 Mu Moles/ml; the “Butyrate, Mean” value is listed as 7.6 Mu Moles/ml. Also, in test [2], the “CH4 (%)” value is 5.6% and 6.2%; the “CH4 (%), Average” value amounted to 5.8%; the “CH4, Percent Change” value is reported as -49.4%; the “H2 (%)” value is listed as 0.0%. Moreover, in test [2], the “H2 (%), Average” value worked out at 0.0%; the Propionic was 20.7 Mu Moles/ml and 18.7 Mu Moles/ml; the “Propionic, Mean” value turned out to be 19.7 Mu Moles/ml; the Total is on record as 32.2 Mu Moles/ml. Further, in test [2], the “Total, Mean” value came out at 38.8 Mu Moles/ml.

Consider “Pyridine, 2,2'-(2-imidazolidinyl- idene)di-, compound with CuCl2 (1/1) [Formula II Compound]”, for which the “activity in chick rye diet test” value in test [3] is reported as “promising activity”. The acetate production result in test [2] (75 ppm) was “depressed acetate production compared to the negative control, and was comparable to monensin”. Moreover, in test [2] (75 ppm, average), the “CH4 (%), Average” value is given as 11.0% and the “H2 (%), Average” value is reported as 0.0%. For the same compound, in test [2] (75 ppm, change versus control average, 1440 min), the “CH4, Percent Change” value is reported as -6.0%. Besides, in test [2] (75 ppm, mean of duplicate), the “Acetate, Mean” value worked out at 8.0 Mu Moles/ml; the “Butyrate, Mean” value was determined as 9.6 Mu Moles/ml; the “Propionic, Mean” value was determined as 14.8 Mu Moles/ml; the “Total, Mean” value amounted to 32.4 Mu Moles/ml. In test [2] (75 ppm, single runs), the “CH4 (%)” value was 11.2% and 10.8%; the “H2 (%)” value was 0.0%. Moreover, in test [2] (setting [4]), the Acetate was 6.8 Mu Moles/ml and 9.2 Mu Moles/ml; the Butyrate is 8.9 Mu Moles/ml and 10.2 Mu Moles/ml; the Propionic was 14.6 Mu Moles/ml and 15.0 Mu Moles/ml; the Total was 38.4 Mu Moles/ml and 34.4 Mu Moles/ml. For the same compound, in test [2] (compared with iron and nickel salts of Formula I), the “activity in rumen fluid batch culture tests” value is “best activity”. The propionate production result in test [2] (expected in tests to establish optimum dosage level) is recorded as “favorable shift to increased propionate production”.

Regarding `CC[C@@H](C(=O)[C@@H](C)[C@@H](O)[C@H](C)CCc1ccc(C)c(O)c1C(=O)O)[C@H]1O[C@](CC)([C@H]2CC[C@](O)(CC)[C@H](C)O2)C[C@@H]1C` [lasalocid, reference compound], the “effect on starch fermentation” value with rumen microflora (25 ppm) is recorded as “neither monensin or lasalocid had any effect”.
